Reference: ChEMBL document CHEMBL4130471, “Design and synthesis of tranylcypromine derivatives as novel LSD1/HDACs dual inhibitors for cancer treatment” (Eur J Med Chem, 2017)
pIC50: −log10 of the molar value. Activity calls are given as the source filed them. No cut-off for these calls is given here.

What was measured:
[1] = system: MGC-803; test: Induction of apoptosis in human MGC803 cells assessed as viable cells level at 2.5 uM incubated for 48 hrs by Annexin-V-FITC/propidium iodide staining based flow cytometry (reference value: 92.3%); assay type: functional
[2] = system: MGC-803; test: Induction of apoptosis in human MGC803 cells assessed as early apoptotic cells level at 5 uM incubated for 48 hrs by Annexin-V-FITC/propidium iodide staining based flow cytometry (reference value: 7.35%); assay type: functional
[3] = target: T1, Lysine-specific histone demethylase 1A (Homo sapiens, UniProt O60341); test: Inhibition of LSD1 in human MGC803 cells assessed as increase in cellular H3K9me2 levels incubated for 24 hrs by Western blot; assay type: cell-based
[4] = system: MGC-803; test: Induction of apoptosis in human MGC803 cells assessed as necrotic cells level at 7.5 uM incubated for 24 hrs by Annexin-V-FITC/propidium iodide staining based flow cytometry (reference value: 0.596%); assay type: functional
[5] = system: A549; test: cells; assay type: functional, cell-based; settings: Homo sapiens, A549, 72 h
Description: Antiproliferative activity against human A549 cells incubated for 72 hrs by MTT assay

[6] = system: MGC-803; test: Induction of apoptosis in human MGC803 cells assessed as viable cells level at 7.5 uM incubated for 24 hrs by Annexin-V-FITC/propidium iodide staining based flow cytometry (reference value: 94.6%); assay type: functional
[7] = system: MGC-803; test: Induction of apoptosis in human MGC803 cells assessed as necrotic cells level at 5 uM incubated for 48 hrs by Annexin-V-FITC/propidium iodide staining based flow cytometry (reference value: 0.242%); assay type: functional
[8] = system: MGC-803; test: Induction of apoptosis in human MGC803 cells assessed as late apoptotic cells level at 2.5 uM incubated for 24 hrs by Annexin-V-FITC/propidium iodide staining based flow cytometry (reference value: 0.447%); assay type: functional
[9] = system: MGC-803; test: Induction of mitochondrial membrane potential loss in human MGC803 cells assessed as FL2 red fluorescence level at 5 uM incubated for 48 hrs by JC1 staining based flow cytometry (reference value: 5.47%); assay type: functional
[10] = target: Histone deacetylase 5 (Homo sapiens, UniProt Q9UQL6); test: Inhibition of C-terminal His-tagged human HDAC5 (656-1122 residues) expressed in baculovirus expression system using Ac-peptide substrate incubated for 15 mins by fluorescence based assay; settings: read-out: IC50
Sequence of Histone deacetylase 5 (Q9UQL6 whole entry, the tested form may be a part): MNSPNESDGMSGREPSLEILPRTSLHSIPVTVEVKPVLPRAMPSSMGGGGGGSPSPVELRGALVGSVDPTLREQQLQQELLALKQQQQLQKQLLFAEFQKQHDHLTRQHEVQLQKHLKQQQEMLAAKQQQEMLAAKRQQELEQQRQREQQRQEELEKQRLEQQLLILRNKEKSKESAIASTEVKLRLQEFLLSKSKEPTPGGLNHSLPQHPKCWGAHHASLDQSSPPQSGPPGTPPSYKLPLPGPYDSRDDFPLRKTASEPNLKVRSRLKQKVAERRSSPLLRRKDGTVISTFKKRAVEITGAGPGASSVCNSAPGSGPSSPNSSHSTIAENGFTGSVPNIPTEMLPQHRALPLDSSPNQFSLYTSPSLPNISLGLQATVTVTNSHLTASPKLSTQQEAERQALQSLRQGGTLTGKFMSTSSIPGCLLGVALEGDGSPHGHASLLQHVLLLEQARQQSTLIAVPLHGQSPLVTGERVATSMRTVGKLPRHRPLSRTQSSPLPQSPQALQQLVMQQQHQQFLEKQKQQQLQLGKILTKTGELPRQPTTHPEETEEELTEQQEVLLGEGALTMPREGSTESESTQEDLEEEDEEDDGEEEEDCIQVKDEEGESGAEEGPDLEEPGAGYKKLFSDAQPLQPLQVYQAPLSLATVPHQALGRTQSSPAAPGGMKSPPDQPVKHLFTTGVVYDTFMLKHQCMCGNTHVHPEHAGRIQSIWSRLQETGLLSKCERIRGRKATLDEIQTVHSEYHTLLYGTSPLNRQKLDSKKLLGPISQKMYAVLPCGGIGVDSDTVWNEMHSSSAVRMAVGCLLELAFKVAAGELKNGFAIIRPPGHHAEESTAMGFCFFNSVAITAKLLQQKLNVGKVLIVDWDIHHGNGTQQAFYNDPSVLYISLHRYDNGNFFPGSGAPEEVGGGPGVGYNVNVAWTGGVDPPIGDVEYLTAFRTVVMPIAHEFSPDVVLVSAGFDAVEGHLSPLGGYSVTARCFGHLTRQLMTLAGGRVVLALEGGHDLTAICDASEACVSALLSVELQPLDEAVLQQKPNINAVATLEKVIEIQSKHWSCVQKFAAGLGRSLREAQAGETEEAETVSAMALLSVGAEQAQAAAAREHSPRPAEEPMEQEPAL

[11] = system: MGC-803; test: Induction of apoptosis in human MGC803 cells assessed as viable cells level at 2.5 uM incubated for 24 hrs by Annexin-V-FITC/propidium iodide staining based flow cytometry (reference value: 94.6%); assay type: functional
[12] = system: MGC-803; test: Induction of apoptosis in human MGC803 cells assessed as early apoptotic cells level at 7.5 uM incubated for 24 hrs by Annexin-V-FITC/propidium iodide staining based flow cytometry (reference value: 4.37%); assay type: functional
[13] = system: MGC-803; test: Induction of apoptosis in human MGC803 cells assessed as viable cells level at 5 uM incubated for 48 hrs by Annexin-V-FITC/propidium iodide staining based flow cytometry (reference value: 92.3%); assay type: functional
[14] = system: MGC-803; test: Induction of apoptosis in human MGC803 cells assessed as necrotic cells level at 2.5 uM incubated for 48 hrs by Annexin-V-FITC/propidium iodide staining based flow cytometry (reference value: 0.242%); assay type: functional
[15] = target: T1, Lysine-specific histone demethylase 1A; test: Inhibition of LSD1 in human MGC803 cells assessed as increase in cellular H3K4me3 levels at 2 uM incubated for 24 hrs by Western blot; assay type: cell-based
[16] = system: PC-3; test: cells; assay type: functional, cell-based; settings: Homo sapiens, PC-3, 72 h
Description: Antiproliferative activity against human PC3 cells incubated for 72 hrs by MTT assay

[17] = system: MGC-803; test: Induction of apoptosis in human MGC803 cells assessed as late apoptotic cells level at 7.5 uM incubated for 24 hrs by Annexin-V-FITC/propidium iodide staining based flow cytometry (reference value: 0.447%); assay type: functional
[18] = system: MGC-803; test: Induction of apoptosis in human MGC803 cells assessed as necrotic cells level at 7.5 uM incubated for 48 hrs by Annexin-V-FITC/propidium iodide staining based flow cytometry (reference value: 0.242%); assay type: functional
[19] = system: MGC-803; test: Induction of apoptosis in human MGC803 cells assessed as necrotic cells level at 5 uM incubated for 24 hrs by Annexin-V-FITC/propidium iodide staining based flow cytometry (reference value: 0.596%); assay type: functional
[20] = system: MGC-803; test: cells; assay type: functional, cell-based; settings: Homo sapiens, MGC-803, 72 h
Description: Antiproliferative activity against human MGC803 cells incubated for 72 hrs by MTT assay

[21] = target: Histone deacetylase 1 (Homo sapiens, UniProt Q13547); test: Inhibition of C-terminal His-tagged and C-terminal FLAG-tagged human HDAC1 expressed in baculovirus expression system using Ac-peptide substrate incubated for 15 mins by fluorescence based assay
Sequence of Histone deacetylase 1 (Q13547 whole entry): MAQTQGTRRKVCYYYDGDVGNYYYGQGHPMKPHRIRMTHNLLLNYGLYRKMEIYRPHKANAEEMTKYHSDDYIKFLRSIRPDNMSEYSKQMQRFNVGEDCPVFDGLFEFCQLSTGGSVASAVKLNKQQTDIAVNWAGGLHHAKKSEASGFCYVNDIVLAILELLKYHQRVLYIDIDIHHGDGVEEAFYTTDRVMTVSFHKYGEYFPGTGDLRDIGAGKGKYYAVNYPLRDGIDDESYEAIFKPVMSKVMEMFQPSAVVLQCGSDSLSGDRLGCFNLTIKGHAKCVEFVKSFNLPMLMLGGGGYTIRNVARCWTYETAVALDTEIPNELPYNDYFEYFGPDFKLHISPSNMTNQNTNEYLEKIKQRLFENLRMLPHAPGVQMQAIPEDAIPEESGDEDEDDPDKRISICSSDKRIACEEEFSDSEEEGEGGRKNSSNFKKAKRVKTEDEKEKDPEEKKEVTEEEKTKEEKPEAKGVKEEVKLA

[22] = system: MGC-803; test: Induction of apoptosis in human MGC803 cells assessed as late apoptotic cells level at 2.5 uM incubated for 48 hrs by Annexin-V-FITC/propidium iodide staining based flow cytometry (reference value: 0.121%); assay type: functional
[23] = target: T1, Lysine-specific histone demethylase 1A
Description: Inhibition of recombinant LSD1 (157 to 852 amino acids) (unknown origin) expressed in Escherichia coli BL21(DE) using H3K4me2 substrate by amplex red and horseradish peroxidase based fluorescence assay

[24] = system: MGC-803; test: Induction of apoptosis in human MGC803 cells assessed as early apoptotic cells level at 5 uM incubated for 24 hrs by Annexin-V-FITC/propidium iodide staining based flow cytometry (reference value: 4.37%); assay type: functional
[25] = target: T1, Lysine-specific histone demethylase 1A; remark: listed apart in the source
[26] = system: MGC-803; test: Potency index, ratio of IC50 for SAHA to IC50 for test compound for antiproliferative activity against human MGC803 cells incubated for 72 hrs by MTT assay; assay type: functional
[27] = system: MGC-803; test: Induction of apoptosis in human MGC803 cells assessed as late apoptotic cells level at 5 uM incubated for 24 hrs by Annexin-V-FITC/propidium iodide staining based flow cytometry (reference value: 0.447%); assay type: functional
[28] = system: MGC-803; test: Induction of mitochondrial membrane potential loss in human MGC803 cells assessed as FL2 red fluorescence level at 7.5 uM incubated for 48 hrs by JC1 staining based flow cytometry (reference value: 5.47%); assay type: functional
[29] = system: MGC-803; test: Induction of apoptosis in human MGC803 cells assessed as early apoptotic cells level at 2.5 uM incubated for 48 hrs by Annexin-V-FITC/propidium iodide staining based flow cytometry (reference value: 7.35%); assay type: functional
[30] = system: MGC-803; test: Induction of apoptosis in human MGC803 cells assessed as viable cells level at 5 uM incubated for 24 hrs by Annexin-V-FITC/propidium iodide staining based flow cytometry (reference value: 94.6%); assay type: functional
[31] = target: T1, Lysine-specific histone demethylase 1A; test: Inhibition of LSD1 in human MGC803 cells assessed as increase in cellular H3K4me2 levels incubated for 24 hrs by Western blot; assay type: cell-based
[32] = system: MGC-803; test: Induction of apoptosis in human MGC803 cells assessed as viable cells level at 7.5 uM incubated for 48 hrs by Annexin-V-FITC/propidium iodide staining based flow cytometry (reference value: 92.3%); assay type: functional
[33] = system: MGC-803; test: Induction of apoptosis in human MGC803 cells assessed as early apoptotic cells level at 7.5 uM incubated for 48 hrs by Annexin-V-FITC/propidium iodide staining based flow cytometry (reference value: 7.35%); assay type: functional
[34] = system: SW-620; test: cells; assay type: functional, cell-based; settings: Homo sapiens, SW-620, 72 h
Description: Antiproliferative activity against human SW620 cells incubated for 72 hrs by MTT assay

SMILES: O=C(CCCCCCNC(=O)c1ccc(CNC2(c3ccccc3)CC2)cc1)NO
- Activity [1]: 25.4%
- Activity [2]: 42%
- inhibition [3]: Dose-dependent effect
- Activity [4]: 2.71%
- pIC50 [5]: 5.87
- Activity [6]: 54.7%
- Activity [7]: 2.21%
- Activity [8]: 4.27%
- Activity [9]: 83.5%
- pIC50 [10]: 4.77
- Activity [11]: 72%
- Activity [12]: 31.7%
- Activity [13]: 11.9%
- Activity [14]: 2.2%
- inhibition [15]: inactive
- pIC50 [16]: 5.26
- Activity [17]: 10.9%
- Activity [18]: 1.61%
- Activity [19]: 2.82%
- pIC50 [20]: 6.09
- pIC50 [21]: 7.82
- Activity [22]: 35.2%
- pIC50 [23]: 5.92
- Activity [24]: 26.2%
- Ratio IC50 [25]: 25
- Ratio IC50 [26]: 10
- Activity [27]: 11%
- Activity [28]: 94%
- Activity [29]: 37.2%
- Activity [30]: 60%
- inhibition [31]: Dose-dependent effect
- Activity [32]: 7.42%
- Activity [33]: 41.4%
- pIC50 [34]: 5.63
